Inconclusive results and toxic doses are left out.
Test system: L1210 leukemia ip in BDF1 mice, survival T/C
Test: NCI In Vivo Anticancer Drug Screen. Data for tumor model L1210 Leukemia (intraperitoneal) in B6D2F1 (BDF1) mice
Details: endpoint: mean survival time, higher = longer survival
In short: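 Each compound was tested against a transplantable tumor grown in mice. The endpoint was survival, with treated animals benchmarked against vehicle controls as a simple ratio.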

[1] = dose: 100.0 mg/kg/injection, schedule: Q01DX001 (ip), vehicle: carboxymethylcellulose (CMC)
[2] = dose: 200.0 mg/kg/injection, schedule: Q01DX001 (ip), vehicle: carboxymethylcellulose (CMC)
[3] = dose: 400.0 mg/kg/injection, schedule: Q01DX001 (ip), vehicle: carboxymethylcellulose (CMC)
[4] = dose: 100.0 mg/kg/injection, schedule: Q01DX009 (ip), vehicle: Klucel (hydroxypropylcellulose) (HPC)
[5] = dose: 200.0 mg/kg/injection, schedule: Q01DX009 (ip), vehicle: Klucel (hydroxypropylcellulose) (HPC)
[6] = dose: 400.0 mg/kg/injection, schedule: Q01DX009 (ip), vehicle: Klucel (hydroxypropylcellulose) (HPC)
[7] = dose: 12.5 mg/kg/injection, schedule: Q04DX003 (ip), vehicle: saline
[8] = dose: 25.0 mg/kg/injection, schedule: Q04DX003 (ip), vehicle: saline
[9] = dose: 50.0 mg/kg/injection, schedule: Q01DX009 (ip), vehicle: saline with Tween-80
[10] = dose: 100.0 mg/kg/injection, schedule: Q04DX003 (ip), vehicle: saline with Tween-80
[11] = dose: 100.0 mg/kg/injection, schedule: Q01DX009 (ip), vehicle: saline with Tween-80
[12] = dose: 200.0 mg/kg/injection, schedule: Q01DX009 (ip), vehicle: saline with Tween-80
[13] = dose: 400.0 mg/kg/injection, schedule: Q01DX009 (ip), vehicle: saline with Tween-80
[14] = dose: 100.0 mg/kg/injection, schedule: Q01DX001 (ip), vehicle: saline
[15] = dose: 200.0 mg/kg/injection, schedule: Q01DX001 (ip), vehicle: saline
[16] = dose: 400.0 mg/kg/injection, schedule: Q01DX001 (ip), vehicle: saline
[17] = dose: 100.0 mg/kg/injection, schedule: Q01DX009 (ip), vehicle: saline
[18] = dose: 200.0 mg/kg/injection, schedule: Q01DX009 (ip), vehicle: saline
[19] = dose: 50.0 mg/kg/injection, schedule: Q04DX003 (ip), vehicle: saline
[20] = dose: 100.0 mg/kg/injection, schedule: Q04DX003 (ip), vehicle: saline

Nc1ccc2c(c1)C(=O)c1cc(N)c(Br)cc1-2
T/C [1]: 93 % of control
T/C [2]: 95 % of control
T/C [3]: 98 % of control

COc1cc(/C=N\N=C(/C)c2ccc(F)cc2)cc(OC)c1OC
T/C [4]: 87 % of control
T/C [5]: 86 % of control
T/C [6]: 89 % of control

Nc1ccc2c(c1)/C(=N/O)c1cc([N+](=O)[O-])ccc1-2
T/C [1]: 100 % of control
T/C [2]: 105 % of control
T/C [3]: 112 % of control

Cc1cccc(NC(=O)Nc2cccc(C(F)(F)F)c2)n1
T/C (dose: 100.0 mg/kg/injection, schedule: Q01DX009 (ip), vehicle: gum acacia): 92 % of control
T/C (dose: 200.0 mg/kg/injection, schedule: Q01DX009 (ip), vehicle: gum acacia): 87 % of control
T/C (dose: 400.0 mg/kg/injection, schedule: Q01DX009 (ip), vehicle: gum acacia): 89 % of control

CCOP(=O)(OCC)N1C(=O)CCC1=O
T/C (dose: 6.25 mg/kg/injection, schedule: Q04DX003 (ip), vehicle: saline): 105 % of control
T/C [7]: 100 % of control
T/C (dose: 13.75 mg/kg/injection, schedule: Q01DX009 (ip), vehicle: saline): 88 % of control
T/C [8]: 103 % of control
T/C (dose: 27.5 mg/kg/injection, schedule: Q01DX009 (ip), vehicle: saline): 94 % of control
T/C (dose: 35.0 mg/kg/injection, schedule: Q04DX003 (ip), vehicle: saline): 102 % of control
T/C (dose: 55.0 mg/kg/injection, schedule: Q04DX003 (ip), vehicle: saline): 101 % of control

OC1CC2CCC(C1)N2CCCN1c2ccccc2Sc2ccc(Cl)cc21 (stereo unspecified)
T/C (dose: 25.0 mg/kg/injection, schedule: Q01DX009 (ip), vehicle: saline with Tween-80): 112 % of control
T/C [9]: 87 % of control
T/C (dose: 50.0 mg/kg/injection, schedule: Q04DX003 (ip), vehicle: saline with Tween-80): 97 % of control
T/C [10]: 112 % of control
T/C (dose: 133.0 mg/kg/injection, schedule: Q04DX003 (ip), vehicle: saline with Tween-80): 107 % of control

CCOC(=O)C1CCCCC1O (stereo unspecified)
T/C [9]: 103 % of control
T/C [11]: 95 % of control
T/C (dose: 100.0 mg/kg/injection, schedule: Q04DX002 (ip), vehicle: saline with Tween-80): 97 % of control
T/C [12]: 103 % of control
T/C (dose: 200.0 mg/kg/injection, schedule: Q04DX002 (ip), vehicle: saline with Tween-80): 97 % of control
T/C (dose: 400.0 mg/kg/injection, schedule: Q04DX002 (ip), vehicle: saline with Tween-80): 104 % of control

O=C(O)c1cc(C(=O)O)c(C(=O)O)cc1C(=O)O
T/C [11]: 96 % of control
T/C [12]: 91 % of control
T/C [13]: 94 % of control

O=C(O)CCCCSCCSCCCCC(=O)O
T/C [4]: 101 % of control
T/C [5]: 94 % of control
T/C [6]: 86 % of control

Cc1cc(C)c(C(=O)O)c(C)c1
T/C [14]: 100 % of control
T/C [11]: 93 % of control
T/C [15]: 96 % of control
T/C [12]: 94 % of control
T/C [16]: 96 % of control
T/C [13]: 94 % of control

COC(=O)C1C(O)C(C)C(=O)C(C)/C=C\C=C(C)C(=O)Nc2c(C)c(OC(C)=O)c3c(c2O)C(=O)C(C)=C2OCOC(=C23)C(C)=CC(C)(O)C(O)C(C)C1O (stereo unspecified)
T/C (dose: 25.0 mg/kg/injection, schedule: Q01DX009 (ip), vehicle: saline): 96 % of control
T/C (dose: 50.0 mg/kg/injection, schedule: Q01DX009 (ip), vehicle: saline): 98 % of control
T/C [17]: 96 % of control
T/C [18]: 98 % of control

Cc1ccc(NC(=O)N2CC2C)cc1NC(=O)N1CC1C (stereo unspecified)
T/C (dose: 2.5 mg/kg/injection, schedule: Q01DX009 (ip), vehicle: saline): 118 % of control
T/C (dose: 20.0 mg/kg/injection, schedule: Q01DX009 (ip), vehicle: saline): 197 % of control

O=C(OCCCCCCOC(=O)c1cccc([N+](=O)[O-])c1)c1cccc([N+](=O)[O-])c1
T/C (dose: 100.0 mg/kg/injection, schedule: Q01DX001 (ip), vehicle: other): 93 % of control
T/C (dose: 200.0 mg/kg/injection, schedule: Q01DX001 (ip), vehicle: other): 93 % of control
T/C (dose: 400.0 mg/kg/injection, schedule: Q01DX001 (ip), vehicle: other): 101 % of control

Cc1ccc(CC(O)(CC(O)(c2ccccc2)c2ccccc2)c2ccccc2)cc1C (stereo unspecified)
T/C (dose: 75.0 mg/kg/injection, schedule: Q01DX001 (ip), vehicle: saline): 92 % of control
T/C (dose: 75.0 mg/kg/injection, schedule: Q04DX003 (ip), vehicle: saline): 94 % of control
T/C (dose: 150.0 mg/kg/injection, schedule: Q01DX001 (ip), vehicle: saline): 92 % of control
T/C (dose: 150.0 mg/kg/injection, schedule: Q04DX003 (ip), vehicle: saline): 91 % of control
T/C (dose: 300.0 mg/kg/injection, schedule: Q01DX001 (ip), vehicle: saline): 90 % of control
T/C (dose: 300.0 mg/kg/injection, schedule: Q04DX003 (ip), vehicle: saline): 94 % of control

O=S(=O)(Nc1ccccn1)c1ccc(N=Nc2ccc(O)c3ncccc23)cc1
T/C [14]: 103 % of control
T/C [15]: 105 % of control
T/C [16]: 103 % of control

COc1cc(Oc2c(OC)cc(NC(C)=O)cc2OC)cc(OC)c1OC
T/C [10]: 94 % of control
T/C (dose: 200.0 mg/kg/injection, schedule: Q04DX003 (ip), vehicle: saline with Tween-80): 97 % of control
T/C (dose: 400.0 mg/kg/injection, schedule: Q04DX003 (ip), vehicle: saline with Tween-80): 95 % of control

O=C(NC1CC2c3ccccc3C1c1ccccc12)NC1CC2c3ccccc3C1c1ccccc12 (stereo unspecified)
T/C (dose: 100.0 mg/kg/injection, schedule: Q04DX003 (ip), vehicle: Klucel (hydroxypropylcellulose) (HPC)): 94 % of control
T/C (dose: 200.0 mg/kg/injection, schedule: Q04DX003 (ip), vehicle: Klucel (hydroxypropylcellulose) (HPC)): 89 % of control
T/C (dose: 400.0 mg/kg/injection, schedule: Q04DX003 (ip), vehicle: Klucel (hydroxypropylcellulose) (HPC)): 98 % of control

N#C/C([SH2+])=C(/[SH2+])C#N.N#C/C([SH2+])=C(/[SH2+])C#N.N#C/C([SH2+])=C(/[SH2+])C#N.N#C/C([SH2+])=C(/[SH2+])C#N.[Co+3].[Co+3].c1ccc([P+](c2ccccc2)(c2ccccc2)c2ccccc2)cc1
T/C [19]: 105 % of control
T/C [14]: 105 % of control
T/C [20]: 97 % of control
T/C [15]: 109 % of control
T/C (dose: 200.0 mg/kg/injection, schedule: Q04DX003 (ip), vehicle: saline): 108 % of control

CCN(CC)Cc1ccccn1
T/C [8]: 102 % of control
T/C [19]: 107 % of control
T/C [20]: 96 % of control

Cn1ncc(C(N)=O)c1N
T/C [17]: 100 % of control
T/C (dose: 100.0 mg/kg/injection, schedule: Q04DX002 (ip), vehicle: saline): 87 % of control
T/C [18]: 103 % of control
T/C (dose: 200.0 mg/kg/injection, schedule: Q04DX002 (ip), vehicle: saline): 87 % of control
T/C (dose: 400.0 mg/kg/injection, schedule: Q01DX009 (ip), vehicle: saline): 96 % of control
T/C (dose: 400.0 mg/kg/injection, schedule: Q04DX002 (ip), vehicle: saline): 90 % of control

Nc1nc(N)c(NC/C=C\c2ccc([N+](=O)[O-])cc2)c(-c2ccccc2)n1
T/C (dose: 50.0 mg/kg/injection, schedule: Q01DX001 (ip), vehicle: saline): 91 % of control
T/C [14]: 97 % of control
T/C [15]: 103 % of control
T/C [16]: 109 % of control

Cc1cc(C)c[n+](Cc2ccccc2Cl)c1
T/C (dose: 12.5 mg/kg/injection, schedule: Q01DX001 (ip), vehicle: saline): 102 % of control
T/C (dose: 25.0 mg/kg/injection, schedule: Q01DX001 (ip), vehicle: saline): 96 % of control

CCOc1ccc(NC(=O)OCCOc2ccccc2)cc1
T/C [4]: 104 % of control
T/C [5]: 100 % of control
T/C [6]: 94 % of control

Cc1ccc(NC(=O)SCc2ccccc2)c([N+](=O)[O-])c1
T/C [4]: 98 % of control
T/C [5]: 100 % of control
T/C [6]: 93 % of control

Cc1cc(C)c(C)c(OCC(=O)O)c1
T/C (dose: 75.0 mg/kg/injection, schedule: Q01DX001 (ip), vehicle: other): 97 % of control
T/C (dose: 150.0 mg/kg/injection, schedule: Q01DX001 (ip), vehicle: other): 97 % of control
T/C (dose: 300.0 mg/kg/injection, schedule: Q01DX001 (ip), vehicle: other): 95 % of control

Cc1cc2ccccc2[n+](C)c1-c1ccccc1Cl
T/C [7]: 102 % of control

— PubChem BioAssay AID248 (DTP/NCI, 2004)
